# Data as given in BindingDB's records for patent US20240124439 (Pfizer, 2024).
# Target: T1, Tyrosine-protein kinase ITK/TSK (Homo sapiens, UniProt Q08881)
# T1 sequence (Q08881 whole entry): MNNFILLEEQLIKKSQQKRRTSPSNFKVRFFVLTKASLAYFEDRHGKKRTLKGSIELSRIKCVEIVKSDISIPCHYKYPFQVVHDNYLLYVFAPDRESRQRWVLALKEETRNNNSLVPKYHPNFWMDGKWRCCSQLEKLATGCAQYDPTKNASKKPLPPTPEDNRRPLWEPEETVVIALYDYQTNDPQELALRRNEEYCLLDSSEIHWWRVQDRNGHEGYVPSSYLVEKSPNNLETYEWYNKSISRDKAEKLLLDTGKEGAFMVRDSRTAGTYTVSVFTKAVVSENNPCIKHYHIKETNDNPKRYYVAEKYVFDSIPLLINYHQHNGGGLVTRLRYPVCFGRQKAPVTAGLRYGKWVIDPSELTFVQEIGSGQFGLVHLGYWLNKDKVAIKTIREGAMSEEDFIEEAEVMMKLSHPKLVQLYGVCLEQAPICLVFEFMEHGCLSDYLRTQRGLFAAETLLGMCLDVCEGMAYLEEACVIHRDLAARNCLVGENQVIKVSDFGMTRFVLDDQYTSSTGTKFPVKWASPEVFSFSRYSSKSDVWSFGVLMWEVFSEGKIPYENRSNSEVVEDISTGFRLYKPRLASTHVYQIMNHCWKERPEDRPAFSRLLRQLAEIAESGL
# Experiment: ITK Enzyme Assay
# Description: 1.0 M HEPES Buffer pH 7.5 solution was prepared as follows: 238.3 g HEPES free acid (Sigma) and 800 mL of water were combined, and the mixture was stirred until complete dissolution. The pH was adjusted to 7.5 via titration with 5N NaOH and the volume adjusted to 1000 mL. The solution was filtered and sterilized.ITK assay buffer was prepared as follows: 50 mL of HPLC-grade water was treated with 2 mL of 1.0 M HEPES Buffer, 500 μL of 2% Gelatin (Sigma), 1.0 mL of aqueous MgCl2 solution (1.0 M), and 1.0 mL of aqueous glutathione solution (0.5 M), and the solution was mixed. The solution was brought to 99 mL in a graduated cylinder by addition of water and sterilized through a 0.2 μm filter. 0.1 mL of Brij-35 Surfact-Amps Detergent Solution (10% w/v aqueous solution, ThermoFisher) and 1.0 mL of ATP (Teknova,100 mM) were added and the solution was mixed.Preparation of 1.33 ITK enzyme solution was as follows: 49.99 mL of ITK assay buffer was treated with 4.1 μL of ITK enzyme (ITK FL (N-Flag and C-His tagged, […]) Lake Pharma, 0.25 mg/ml in a buffer containing 25 mM Tris pH 7.8, 150 mM NaCl, 10% glycerol and 2 mM TCEP) and the mixture was gently agitated. The resulting solution was stored on ice. 30 Minutes prior to use, the enzyme solution was removed from ice and equilibrated to RT by incubation in a RT water bath.
row,SMILES,IC50 [nM]
1,"CC(C)(C(=O)Nc1cnc2[nH]c(-c3n[nH]c4c3C[C@@H]3C[C@]3(C)C4)nc2c1)N1CCOCC1 [US20240124439, Example 16]",747
2,"C[C@@H](C(=O)N(C)c1cnc2[nH]c(-c3n[nH]c4c3CCC(C)(C)C4)nc2c1)N1CCOCC1 [US20240124439, Example 14]",147
3,"C[C@H](C(=O)N(C)c1cnc2[nH]c(-c3n[nH]c4c3C[C@@H]3C[C@]3(C)C4)nc2c1)N1CCOCC1 [US20240124439, Example 26]",136
4,"CCN(C(=O)[C@H](C)C1CCOCC1)c1cnc2[nH]c(-c3n[nH]c4c3CCC(C)(C)C4)nc2c1 [US20240124439, Example 18]",28
5,"C[C@@H](C(=O)Nc1ccc2[nH]c(-c3n[nH]c4c3CCC(C)(C)C4)nc2c1)N1CCOCC1 [US20240124439, Example 33]",2000

# Second part, the compound after the results:
row,IC50 [nM],SMILES
1,66,"CN(C(=O)CC1CC(F)(F)C1)c1cnc2nc(-c3n[nH]c4c3C[C@@H]3C[C@]3(C)C4)[nH]c2c1 [US20240124439, Example 48]"
2,147,"CCc1nc2[nH]c(-c3n[nH]c4c3C[C@@H]3C[C@]3(C)C4)nc2cc1N(C)C(=O)CN1CCOCC1 [US20240124439, Example 37]"
3,33,"CN(C(=O)CC1CC2(C1)CC2(F)F)c1cnc2nc(-c3n[nH]c4c3C[C@@H]3C[C@]3(C)C4)[nH]c2c1 (stereo not given in full) [US20240124439, Example 50]"
4,62,"CN(C(=O)CC1CC2(C1)CC(F)(F)C2)c1cnc2nc(-c3n[nH]c4c3C[C@@H]3C[C@]3(C)C4)[nH]c2c1 [US20240124439, Example 54]"
5,25,"CN(C(=O)CC1CC2(CCC2)C1)c1cnc2nc(-c3n[nH]c4c3C[C@@H]3C[C@]3(C)C4)[nH]c2c1 [US20240124439, Example 49]"
